In patent US20260070899A1, “N-(2-(4-CYANOTHIAZOLIDIN-3-YL)-2-OXOETHYL)-QUINOLINE-4-CARBOXAMIDES” (AstraZeneca AB, priority 2022, published 2026):

Key:
[1] = biological target: T1, human dipeptidylpeptidase 9 (hDPP9) (Homo sapiens, UniProt Q86TI2); test: hDPP9 inhibition assay; format: biochemical; conditions: hDPP9 0.4 nM, Ala-Pro-amino-methylcoumarin 5 μM; n = 1
T1 construct: purchased BPS Bioscience 80090
Procedure: (§1) Compounds were tested in a biochemical inhibition assay using human dipeptidylpeptidase 9 (hDPP9) enzyme at 0.4 nM FAC (BPS Bioscience, #80090) and the substrate Ala-Pro-amino-methylcoumarin (BPS Bioscience #80305) at 5 μM FAC. The enzymatic reactions were conducted in duplicate at rt for 30 min in 50 μL DPP assay buffer (BPS Bioscience, #80300). Compound solutions (in DMSO) at 10 CR, 3 fold dilution series were prepared in assay buffer ten-fold higher than the final concentration, and 5 μL of the dilution was added to a 50 μL reaction so that the highest compound concentration was 100 μM FAC and the concentration of DMSO was 1% in all wells. The plates were read on a Tecan Infinite M1000 microplate reader with excitation 340 nm and emission 460 nm. Data were analyzed in Graph Pad Prism. […] Raw data signals were normalized using 1% DMSO as 0% control and no enzyme as 100% inhibitor control.

[2] = biological target: T2, human dipeptidylpeptidase 8 (hDPP8) (Homo sapiens, UniProt Q6V1X1); test: hDPP8 inhibition assay; format: biochemical; conditions: hDPP8 1.5 nM, Ala-Pro-amino-methylcoumarin 5 μM; n = 1
T2 construct: purchased BPS Bioscience 80080
Procedure: as §1, with “8 (hDPP8)” for “9 (hDPP9)”, “1.5” for “0.4”, “#80080)” for “#80090)”

[3] = biological target: T3, human dipeptidylpeptidase 7 (hDPP7) (Homo sapiens, UniProt Q9UHL4); test: hDPP7 inhibition assay; format: biochemical; conditions: hDPP7 15 nM, Ala-Pro-amino-methylcoumarin 5 μM; n = 1
T3 construct: purchased BPS Bioscience 80070
Procedure: Compounds were tested in a biochemical inhibition assay using human dipeptidylpeptidase 7 (hDPP7) enzyme at 15 nM FAC (BPS Bioscience, #80070) and the substrate Ala-Pro-amino-methylcoumarin (BPS Bioscience, #80305) at 5 μM FAC. The enzymatic reactions were conducted in duplicate at rt for 30 min in 50 μL DPP assay buffer (BPS Bioscience, #80300). Compound solutions (in DMSO) at 10 CR, 3 fold dilution series were prepared in assay buffer ten-fold higher than the final concentration, and 5 μL of the dilution was added to a 50 μL reaction so that the highest compound concentration was 100 μM FAC and the concentration of DMSO was 1% in all wells. The plates were read on a Tecan Infinite M1000 microplate reader with excitation 340 nm and emission 460 nm. Data were analyzed in Graph Pad Prism. […] Raw data signals were normalized using 1% DMSO as 0% control and no enzyme as 100% inhibitor control.

Rat Hepatocytes (rHep) = test: Metabolic stability in rat hepatocytes (rHep); format: in vitro ADME; conditions: n = 1 or geometric mean (n = 2-3)
Procedure: Metabolic stability in rat hepatocytes was measured as described in J Comput Aided Mol Des 2015, 29, 795.

T2 sequence (Q6V1X1 whole entry): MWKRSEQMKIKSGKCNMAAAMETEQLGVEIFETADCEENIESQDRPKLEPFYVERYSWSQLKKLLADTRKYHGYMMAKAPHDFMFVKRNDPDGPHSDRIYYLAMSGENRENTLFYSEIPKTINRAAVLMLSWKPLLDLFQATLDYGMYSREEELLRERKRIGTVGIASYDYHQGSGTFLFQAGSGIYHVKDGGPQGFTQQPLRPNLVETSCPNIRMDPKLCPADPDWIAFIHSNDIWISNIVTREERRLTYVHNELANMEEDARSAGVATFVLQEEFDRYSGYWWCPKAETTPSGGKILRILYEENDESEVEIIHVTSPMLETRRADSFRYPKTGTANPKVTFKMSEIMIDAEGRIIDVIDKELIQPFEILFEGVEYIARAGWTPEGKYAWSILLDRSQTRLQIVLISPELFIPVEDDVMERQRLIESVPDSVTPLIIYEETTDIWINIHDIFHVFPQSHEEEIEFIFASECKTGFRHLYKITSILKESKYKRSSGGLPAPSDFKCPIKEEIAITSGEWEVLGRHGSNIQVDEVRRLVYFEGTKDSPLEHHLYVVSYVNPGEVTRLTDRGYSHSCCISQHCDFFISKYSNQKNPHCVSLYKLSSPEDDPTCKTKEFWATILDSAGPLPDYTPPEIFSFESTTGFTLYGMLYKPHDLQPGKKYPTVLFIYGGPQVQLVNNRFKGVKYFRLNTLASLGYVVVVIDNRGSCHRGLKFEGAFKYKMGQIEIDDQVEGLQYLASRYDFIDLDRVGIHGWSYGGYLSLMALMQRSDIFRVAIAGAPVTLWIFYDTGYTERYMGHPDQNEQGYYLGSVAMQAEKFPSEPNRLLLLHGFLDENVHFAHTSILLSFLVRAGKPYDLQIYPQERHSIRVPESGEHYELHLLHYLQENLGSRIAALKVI
T1 sequence (Q86TI2 whole entry): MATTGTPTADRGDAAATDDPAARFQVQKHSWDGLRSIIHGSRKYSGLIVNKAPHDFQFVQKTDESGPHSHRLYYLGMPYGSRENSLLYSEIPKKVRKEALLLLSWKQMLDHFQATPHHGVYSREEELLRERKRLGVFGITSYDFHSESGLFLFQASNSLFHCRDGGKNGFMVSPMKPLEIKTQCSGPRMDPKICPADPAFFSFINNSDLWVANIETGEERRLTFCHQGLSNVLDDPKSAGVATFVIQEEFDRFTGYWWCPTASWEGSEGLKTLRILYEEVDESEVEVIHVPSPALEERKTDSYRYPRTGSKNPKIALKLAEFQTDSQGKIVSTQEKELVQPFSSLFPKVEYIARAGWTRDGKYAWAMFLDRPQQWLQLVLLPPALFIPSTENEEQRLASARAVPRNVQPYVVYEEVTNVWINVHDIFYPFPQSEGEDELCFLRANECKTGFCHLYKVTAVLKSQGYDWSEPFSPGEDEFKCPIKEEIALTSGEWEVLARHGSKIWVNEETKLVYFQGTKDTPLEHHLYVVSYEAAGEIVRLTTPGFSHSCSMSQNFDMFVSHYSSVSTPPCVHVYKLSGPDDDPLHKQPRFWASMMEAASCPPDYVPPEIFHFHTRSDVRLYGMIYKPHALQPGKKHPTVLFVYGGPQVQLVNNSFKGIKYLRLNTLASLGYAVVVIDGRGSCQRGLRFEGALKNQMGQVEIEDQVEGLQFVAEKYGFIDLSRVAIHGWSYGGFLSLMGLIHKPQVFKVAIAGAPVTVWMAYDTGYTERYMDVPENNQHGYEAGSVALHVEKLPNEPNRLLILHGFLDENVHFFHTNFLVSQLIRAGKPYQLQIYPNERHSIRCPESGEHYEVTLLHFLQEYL

Compound	IC50 [1] [µM]	IC50 [2] [µM]	IC50 [3] [µM]	rHeps CLint (Rat Hepatocytes (rHep)) [μL/min/1E6]
CC(C)(F)COc1ccc2nccc(C(=O)NCC(=O)N3CSC[C@H]3C#N)c2c1 [Example 3, (R)—N-(2-(4-Cyanothiazolidin-3-yl)-2-oxoethyl)-6-(2-fluoro-2-methylpropoxy)quinoline-4-carboxamide]	1.9	6.4	> 100	–
COC(C)(C)c1ccc2nccc(C(=O)NCC(=O)N3CSC[C@H]3C#N)c2c1 [Example 18, (R)—N-(2-(4-Cyanothiazolidin-3-yl)-2-oxoethyl)-6-(2-methoxypropan-2-yl)quinoline-4-carboxamide]	–	–	–	26
